Laboratory results reported in ChEMBL document CHEMBL1201861, “Genomics of Drug Sensitity in Cancer screening data, Wellcome Trust Sanger Institute”.

Legend:
Test in all cases: cells
Conditions in all cases: Homo sapiens
MEG-01 = format: functional, cell-based;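 further: growth inhibition of MEG-01 cells, read out by a cell viability assay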
Description: SANGER: Inhibition of human MEG-01 cell growth in a cell viability assay.

NCI-H1581 = format: functional, cell-based;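 further: cell growth inhibition read out by a viability assay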
Description: SANGER: Inhibition of human NCI-H1581 cell growth in a cell viability assay.

RKO = format: functional, cell-based;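 further: growth inhibition of human RKO cells, read out with a cell viability assay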
Description: SANGER: Inhibition of human RKO cell growth in a cell viability assay.

OVCAR-4 = format: functional, cell-based;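 further: growth inhibition of human OVCAR-4 cells, measured with a cell viability assay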
Description: SANGER: Inhibition of human OVCAR-4 cell growth in a cell viability assay.

TE-6 = format: functional, cell-based;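 further: growth inhibition of TE-6 cells, read out with a cell viability assay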
Description: SANGER: Inhibition of human TE-6 cell growth in a cell viability assay.

Mo = format: functional, cell-based
Description: SANGER: Inhibition of human Mo-T cell growth in a cell viability assay.

KP-N-YS = format: functional, cell-based;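 further: cell viability assay measuring inhibition of cell line growth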
Description: SANGER: Inhibition of human KP-N-YS cell growth in a cell viability assay.

HT-144 = format: functional, cell-based
Description: SANGER: Inhibition of human HT-144 cell growth in a cell viability assay.

NCI-H526 = format: functional, cell-based;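 further: growth inhibition of the human NCI-H526 cell line, measured by a cell viability assay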
Description: SANGER: Inhibition of human NCI-H526 cell growth in a cell viability assay.

COLO-320-HSR = format: functional, cell-based;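 further: growth inhibition of COLO-320-HSR cells, determined with a cell viability assay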
Description: SANGER: Inhibition of human COLO-320-HSR cell growth in a cell viability assay.

LU-134-A = format: functional, cell-based
Description: SANGER: Inhibition of human LU-134-A cell growth in a cell viability assay.

DMS-114 = format: functional, cell-based
CAS-1 = format: functional, cell-based;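 further: growth inhibition of CAS-1 cells, measured with a cell viability assay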
Description: SANGER: Inhibition of human CAS-1 cell growth in a cell viability assay.

EW-18 = format: functional, cell-based;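 further: growth inhibition of EW-18 cells, read out by a cell viability assay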
Description: SANGER: Inhibition of human EW-18 cell growth in a cell viability assay.

SK-NEP-1 = format: functional, cell-based;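 further: growth inhibition of human SK-NEP-1 cells, read out by a cell viability assay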
Description: SANGER: Inhibition of human SK-NEP-1 cell growth in a cell viability assay.

ATN-1 = format: functional, cell-based;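 further: growth inhibition of human ATN-1 cells, read out with a cell viability assay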
Description: SANGER: Inhibition of human ATN-1 cell growth in a cell viability assay.

MZ1-PC = format: functional, cell-based;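 further: cell viability assay measuring growth inhibition of human MZ1-PC cells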
Description: SANGER: Inhibition of human MZ1-PC cell growth in a cell viability assay.

HL-60 = format: functional, cell-based;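 further: growth inhibition of human HL-60 cells, read out with a cell viability assay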
Description: SANGER: Inhibition of human HL-60 cell growth in a cell viability assay.

Ramos-2G6-4C10 = format: functional, cell-based;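 further: growth inhibition of the cell line, measured by a cell viability read-out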
Description: SANGER: Inhibition of human Ramos-2G6-4C10 cell growth in a cell viability assay.

NH-12 = format: functional, cell-based;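 further: growth inhibition of NH-12 cells, read out with a cell viability assay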
Description: SANGER: Inhibition of human NH-12 cell growth in a cell viability assay.

KARPAS-45 = format: functional, cell-based;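 further: inhibition of cell line growth, read out through a viability assay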
Description: SANGER: Inhibition of human KARPAS-45 cell growth in a cell viability assay.

NB69 = format: functional, cell-based;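 further: growth inhibition of NB69 cells, determined by a cell viability assay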
Description: SANGER: Inhibition of human NB69 cell growth in a cell viability assay.

NCI-H1395 = format: functional, cell-based;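 further: cell viability assay read-out quantifying reduced proliferation of human NCI-H1395 cells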
Description: SANGER: Inhibition of human NCI-H1395 cell growth in a cell viability assay.

LAMA-84 = format: functional, cell-based;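 further: growth inhibition of LAMA-84 cells, read out with a cell viability assay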
Description: SANGER: Inhibition of human LAMA-84 cell growth in a cell viability assay.

JVM-3 = format: functional, cell-based;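 further: growth inhibition of human JVM-3 cells, read out with a cell viability assay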
Description: SANGER: Inhibition of human JVM-3 cell growth in a cell viability assay.

Becker = format: functional, cell-based;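 further: growth inhibition of Becker cells, read out with a cell viability assay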
Description: SANGER: Inhibition of human Becker cell growth in a cell viability assay.

NCI-H747 = format: functional, cell-based;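 further: growth inhibition of human NCI-H747 cells, read out by a cell viability assay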
Description: SANGER: Inhibition of human NCI-H747 cell growth in a cell viability assay.

SK-N-FI = format: functional, cell-based;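 further: cell viability assay measuring growth inhibition of human SK-N-FI cells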
Description: SANGER: Inhibition of human SK-N-FI cell growth in a cell viability assay.

DEL = format: functional, cell-based;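 further: growth inhibition of the human DEL cell line, read out with a cell viability assay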
Description: SANGER: Inhibition of human DEL cell growth in a cell viability assay.

GI-1 = format: functional, cell-based;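 further: growth inhibition of human GI-1 cells, measured with a cell viability readout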
Description: SANGER: Inhibition of human GI-1 cell growth in a cell viability assay.

TE-10 = format: functional, cell-based;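 further: growth inhibition of TE-10 cells, measured by a cell viability assay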
Description: SANGER: Inhibition of human TE-10 cell growth in a cell viability assay.

EW-13 = format: functional, cell-based;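 further: growth inhibition of EW-13 cells, read out with a cell viability assay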
Description: SANGER: Inhibition of human EW-13 cell growth in a cell viability assay.

MHH-NB-11 = format: functional, cell-based;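 further: growth inhibition of human MHH-NB-11 cells, read out by a cell viability assay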
Description: SANGER: Inhibition of human MHH-NB-11 cell growth in a cell viability assay.

HCC1187 = format: functional, cell-based;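 further: growth inhibition of HCC1187 cells, read out with a cell viability assay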
Description: SANGER: Inhibition of human HCC1187 cell growth in a cell viability assay.

UACC-257 = format: functional, cell-based
Description: SANGER: Inhibition of human UACC-257 cell growth in a cell viability assay.

U-87 MG = format: functional, cell-based, U-87MG ATCC;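 further: growth inhibition of the cells measured with a viability assay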
Description: SANGER: Inhibition of human U-87-MG cell growth in a cell viability assay.

SK-PN-DW = format: functional, cell-based;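 further: growth inhibition measured with a viability assay on these cells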
Description: SANGER: Inhibition of human SK-PN-DW cell growth in a cell viability assay.

NB10 = format: functional, cell-based;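 further: growth inhibition of NB10 cells, read out by a cell viability assay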
Description: SANGER: Inhibition of human NB10 cell growth in a cell viability assay.

HDLM-2 = format: functional, cell-based;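 further: cell viability assay measuring suppression of HDLM-2 proliferation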
Description: SANGER: Inhibition of human HDLM-2 cell growth in a cell viability assay.

SNU-5 = format: functional, cell-based;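 further: cell viability readout used to measure growth inhibition in human NCI-SNU-5 cells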
Description: SANGER: Inhibition of human NCI-SNU-5 cell growth in a cell viability assay.

A101D = format: functional, cell-based;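 further: growth inhibition of the cell line, measured with a viability assay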
Description: SANGER: Inhibition of human A101D cell growth in a cell viability assay.

MC116 = format: functional, cell-based;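 further: growth inhibition of MC116 cells, read out with a cell viability assay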
Description: SANGER: Inhibition of human MC116 cell growth in a cell viability assay.

EKVX = format: functional, cell-based;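 further: growth inhibition of human EKVX cells, read out with a cell viability assay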
Description: SANGER: Inhibition of human EKVX cell growth in a cell viability assay.

SK-MEL-1 = format: functional, cell-based;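 further: growth inhibition of human SK-MEL-1 cells, read out by a cell viability assay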
Description: SANGER: Inhibition of human SK-MEL-1 cell growth in a cell viability assay.

L-428 = format: functional, cell-based
Description: SANGER: Inhibition of human L-428 cell growth in a cell viability assay.

MZ2-MEL = format: functional, cell-based;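 further: growth inhibition of MZ2-MEL cells read out with a cell viability assay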
Description: SANGER: Inhibition of human MZ2-MEL cell growth in a cell viability assay.

MZ7-mel = format: functional, cell-based;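 further: growth inhibition of human MZ7-mel cells, measured by a cell viability assay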
Description: SANGER: Inhibition of human MZ7-mel cell growth in a cell viability assay.

MOLT-16 = format: functional, cell-based;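 further: growth inhibition of human MOLT-16 cells, read out with a cell viability assay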
Description: SANGER: Inhibition of human MOLT-16 cell growth in a cell viability assay.

SF-539 = format: functional, cell-based;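 further: Read-out is a cell viability assay, with IC50 reflecting inhibition of cell growth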
Description: SANGER: Inhibition of human SF539 cell growth in a cell viability assay.

MMAC-SF = format: functional, cell-based;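 further: growth inhibition of human MMAC-SF cells, read out with a cell viability assay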
Description: SANGER: Inhibition of human MMAC-SF cell growth in a cell viability assay.

EW-16 = format: functional, cell-based;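 further: growth inhibition of human EW-16 cells, read out as cell viability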
Description: SANGER: Inhibition of human EW-16 cell growth in a cell viability assay.

DOHH-2 = format: functional, cell-based;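 further: growth inhibition of human DOHH-2 cells, read out with a cell viability assay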
Description: SANGER: Inhibition of human DOHH-2 cell growth in a cell viability assay.

ES4 = format: functional, cell-based;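 further: growth inhibition of human ES4 cells, read out by a cell viability assay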
Description: SANGER: Inhibition of human ES4 cell growth in a cell viability assay.

BB30-HNC = format: functional, cell-based;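 further: growth inhibition of the cultured cell line, read out by a cell viability assay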
Description: SANGER: Inhibition of human BB30-HNC cell growth in a cell viability assay.

SJSA-1 = format: functional, cell-based
Description: SANGER: Inhibition of human SJSA-1 cell growth in a cell viability assay.

EW-1 = format: functional, cell-based
Description: SANGER: Inhibition of human EW-1 cell growth in a cell viability assay.

A388 = format: functional, cell-based
Description: SANGER: Inhibition of human A388 cell growth in a cell viability assay.

NCI-H1304 = format: functional, cell-based
Description: SANGER: Inhibition of human NCI-H1304 cell growth in a cell viability assay.

GI-ME-N = format: functional, cell-based
Description: SANGER: Inhibition of human GI-ME-N cell growth in a cell viability assay.

NCI-H209 = format: functional, cell-based
Description: SANGER: Inhibition of human NCI-H209 cell growth in a cell viability assay.

KMOE-2 = format: functional, cell-based
Description: SANGER: Inhibition of human KMOE-2 cell growth in a cell viability assay.

ONS-76 = format: functional, cell-based
Description: SANGER: Inhibition of human ONS-76 cell growth in a cell viability assay.

L-363 = format: functional, cell-based
Description: SANGER: Inhibition of human L-363 cell growth in a cell viability assay.

CCn1c(-c2nonc2N)nc2cnc(Oc3cccc(NC(=O)c4ccc(OCCN5CCOCC5)cc4)c3)cc21 [GSK-269962A]
IC50 (MEG-01): > 2500 nM | IC50 (NCI-H1581): > 2500 nM | IC50 (RKO): > 2500 nM | IC50 (OVCAR-4): > 2500 nM | IC50 (TE-6): > 2500 nM | IC50 (Mo): > 2500 nM | IC50 (KP-N-YS): > 2500 nM | IC50 (HT-144): > 2500 nM | IC50 (NCI-H526): > 2500 nM | IC50 (COLO-320-HSR): > 2500 nM | IC50 (LU-134-A): > 2500 nM | IC50 (DMS-114): > 2500 nM | IC50 (CAS-1): 847 nM | IC50 (EW-18): > 2500 nM | IC50 (SK-NEP-1): > 2500 nM | IC50 (ATN-1): > 2500 nM | IC50 (MZ1-PC): > 2500 nM | IC50 (HL-60): > 2500 nM | IC50 (Ramos-2G6-4C10): 1360 nM | IC50 (NH-12): > 2500 nM | IC50 (KARPAS-45): > 2500 nM | IC50 (NB69): > 2500 nM | IC50 (NCI-H1395): > 2500 nM | IC50 (LAMA-84): > 2500 nM | IC50 (JVM-3): > 2500 nM | IC50 (Becker): > 2500 nM | IC50 (NCI-H747): > 2500 nM | IC50 (SK-N-FI): > 2500 nM | IC50 (DEL): > 2500 nM | IC50 (GI-1): 5.23 nM | IC50 (TE-10): > 2500 nM | IC50 (EW-13): > 2500 nM | IC50 (MHH-NB-11): 66.9 nM | IC50 (HCC1187): > 2500 nM | IC50 (UACC-257): > 2500 nM | IC50 (U-87 MG): > 2500 nM | IC50 (SK-PN-DW): > 2500 nM | IC50 (NB10): 138 nM | IC50 (HDLM-2): > 2500 nM | IC50 (SNU-5): > 2500 nM | IC50 (A101D): 1870 nM | IC50 (MC116): > 2500 nM | IC50 (EKVX): > 2500 nM | IC50 (SK-MEL-1): > 2500 nM | IC50 (L-428): > 2500 nM | IC50 (MZ2-MEL): > 2500 nM | IC50 (MZ7-mel): > 2500 nM | IC50 (MOLT-16): > 2500 nM | IC50 (SF-539): 1290 nM | IC50 (MMAC-SF): > 2500 nM | IC50 (EW-16): > 2500 nM | IC50 (DOHH-2): > 2500 nM | IC50 (ES4): > 2500 nM | IC50 (BB30-HNC): > 2500 nM | IC50 (SJSA-1): 1050 nM | IC50 (EW-1): > 2500 nM | IC50 (A388): > 2500 nM | IC50 (NCI-H1304): > 2500 nM | IC50 (GI-ME-N): 49.5 nM | IC50 (NCI-H209): > 2500 nM | IC50 (KMOE-2): > 2500 nM | IC50 (ONS-76): > 2500 nM | IC50 (L-363): > 2500 nM

Cc1ccc(NC(=O)c2cccc(C(C)(C)C#N)c2)cc1Nc1ccc2ncn(C)c(=O)c2c1
IC50 (MEG-01): 376 nM | IC50 (NCI-H1581): > 4000 nM | IC50 (RKO): 37.7 nM | IC50 (OVCAR-4): > 4000 nM | IC50 (TE-6): > 4000 nM | IC50 (Mo): > 4000 nM | IC50 (KP-N-YS): > 4000 nM | IC50 (HT-144): 6.61 nM | IC50 (NCI-H526): > 4000 nM | IC50 (COLO-320-HSR): > 4000 nM | IC50 (LU-134-A): > 4000 nM | IC50 (DMS-114): > 4000 nM | IC50 (CAS-1): > 4000 nM | IC50 (EW-18): > 4000 nM | IC50 (SK-NEP-1): 472 nM | IC50 (ATN-1): > 4000 nM | IC50 (MZ1-PC): 280 nM | IC50 (HL-60): 154 nM | IC50 (Ramos-2G6-4C10): > 4000 nM | IC50 (NH-12): > 4000 nM | IC50 (KARPAS-45): > 4000 nM | IC50 (NB69): 191 nM | IC50 (NCI-H1395): > 4000 nM | IC50 (LAMA-84): 192 nM | IC50 (JVM-3): > 4000 nM | IC50 (Becker): > 4000 nM | IC50 (NCI-H747): 506 nM | IC50 (SK-N-FI): > 4000 nM | IC50 (DEL): > 4000 nM | IC50 (GI-1): > 4000 nM | IC50 (TE-10): > 4000 nM | IC50 (EW-13): > 4000 nM | IC50 (MHH-NB-11): > 4000 nM | IC50 (HCC1187): > 4000 nM | IC50 (UACC-257): 27.5 nM | IC50 (U-87 MG): > 4000 nM | IC50 (SK-PN-DW): > 4000 nM | IC50 (NB10): > 4000 nM | IC50 (HDLM-2): > 4000 nM | IC50 (SNU-5): 2810 nM | IC50 (A101D): 5.82 nM | IC50 (MC116): > 4000 nM | IC50 (EKVX): > 4000 nM | IC50 (SK-MEL-1): 384 nM | IC50 (L-428): > 4000 nM | IC50 (MZ2-MEL): 794 nM | IC50 (MZ7-mel): 117 nM | IC50 (MOLT-16): > 4000 nM | IC50 (SF-539): > 4000 nM | IC50 (MMAC-SF): 40.1 nM | IC50 (EW-16): > 4000 nM | IC50 (DOHH-2): 1990 nM | IC50 (ES4): > 4000 nM | IC50 (BB30-HNC): 1960 nM | IC50 (SJSA-1): 1430 nM | IC50 (EW-1): > 4000 nM | IC50 (A388): > 4000 nM | IC50 (NCI-H1304): > 4000 nM | IC50 (GI-ME-N): 1290 nM | IC50 (NCI-H209): > 4000 nM | IC50 (KMOE-2): 116 nM | IC50 (ONS-76): 167 nM | IC50 (L-363): > 4000 nM
